PMC11483378, “Triazole-Based Thiamine Analogues as Inhibitors of Thiamine Pyrophosphate-Dependent Enzymes: 1,3-Dicarboxylate for Metal Binding” (ACS Omega, 2024)

Assays:
[1] = PAMPA (parallel artificial membrane permeability assay); format: in vitro ADME
Method: PAMPA – methods and results (Table S2)
PAMPA was carried out in 96-well microtiter filter plates obtained from Millipore as described1 with some modifications. Each well of the filter plate was impregnated with 15 µL of 5% hexadecane dissolved in hexane (i.e. total amount of hexadecane: 0.75 µL) for at least 10 minutes in ventilated environment to allow for complete evaporation of hexane. Donor compartments were filled with 200 µL compound-containing donor solutions of compounds dissolved in 5% DMSO, phosphate buffered saline PBS) and connected to acceptor plate prefilled with buffer (5% DMSO in PBS, pH 7.4). The resulting sandwich was incubated at room temperature under gentle shaking and wrapped in wet paper towels to avoid evaporation. After 10 hours, the sandwich was disassembled and the solutions in the acceptor and donor were transferred to a disposable UV-transparent plate. UV absorption was measured at wavelengths between 220 and 340 nm using a microplate reader (CLARIOstar).
Compounds were tested at 500 µM. Calibration to determine concentration of compounds were performed with varying compound concentrations in buffer (5% DMSO in PBS).
The artificial membrane permeability is expressed as fraction absorbed (Fa%)2 or log Pe (log of the effective permeability)1. LogD values at pH 7.4 were calculated using MarvinSketch.
Fa% = 100 ∙CA ∙VA / CD0 ∙ VD where: CA = final drug concentration in the acceptor well (µM)
VA = volume in the acceptor well (cm3)
CD0 = Initial drug concentration in the donor well (µM)
VD = volume in the donor well (cm3) log P (cm/s) = log -ln 1-CA/Cequilibrium
S = surface area (cm2), typically 0.268 cm2
Cequilibrium = theoretical equilibrium concentration = [CD ∙VD+CA ∙VA] / [VD+VA] where: CD = final drug concentration in the donor well (µM)
CA = final drug concentration in the acceptor well (µM)
Table S2. Permeability data.
Compounds Fa (%) PAMPA log Pe (cm/s) cLogD (pH = 7.4)

Porcine PDH E1 = target: T1, Porcine PDH E1 (Sus scrofa, UniProt P29804); design: method as in PMID 37201323; conditions: assay conditions of previous study; cited from earlier work
T1 sequence (P29804 31-390): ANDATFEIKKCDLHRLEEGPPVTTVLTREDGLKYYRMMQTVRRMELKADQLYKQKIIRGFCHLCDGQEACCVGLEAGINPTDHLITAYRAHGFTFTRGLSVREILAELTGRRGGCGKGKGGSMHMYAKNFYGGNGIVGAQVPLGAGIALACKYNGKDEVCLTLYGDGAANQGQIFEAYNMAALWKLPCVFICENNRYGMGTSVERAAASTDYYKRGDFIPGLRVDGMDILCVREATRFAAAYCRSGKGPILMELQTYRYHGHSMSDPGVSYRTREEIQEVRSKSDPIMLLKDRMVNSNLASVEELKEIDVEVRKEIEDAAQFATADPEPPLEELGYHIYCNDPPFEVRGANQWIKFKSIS

S. cerevisiae PDC = target: T2, S. cerevisiae PDC (Saccharomyces cerevisiae, UniProt P06169); design: method as in PMID 37201323; conditions: assay conditions of previous study; cited from earlier work
T2 construct: purchased Sigma
T2 sequence (P06169 2-563 limits assumed): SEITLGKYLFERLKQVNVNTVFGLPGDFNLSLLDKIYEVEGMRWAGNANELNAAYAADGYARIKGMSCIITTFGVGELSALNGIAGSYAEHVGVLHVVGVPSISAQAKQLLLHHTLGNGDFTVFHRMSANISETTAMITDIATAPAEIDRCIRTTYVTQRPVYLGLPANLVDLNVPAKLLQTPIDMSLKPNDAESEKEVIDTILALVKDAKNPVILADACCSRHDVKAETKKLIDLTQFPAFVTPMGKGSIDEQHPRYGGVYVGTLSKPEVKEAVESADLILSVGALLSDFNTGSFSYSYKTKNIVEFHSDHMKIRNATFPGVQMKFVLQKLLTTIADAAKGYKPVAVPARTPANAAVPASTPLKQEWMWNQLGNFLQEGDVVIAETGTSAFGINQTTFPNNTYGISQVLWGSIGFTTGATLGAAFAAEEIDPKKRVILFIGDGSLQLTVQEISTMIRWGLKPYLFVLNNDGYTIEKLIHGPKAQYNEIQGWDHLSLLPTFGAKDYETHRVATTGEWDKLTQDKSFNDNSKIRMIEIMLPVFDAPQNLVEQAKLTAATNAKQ

E. coli OGDH E1 = E. coli OGDH E1 (Escherichia coli, UniProt P0AFG3); design: method as in PMID 37201323; conditions: assay conditions of previous study; cited from earlier work
A. viridans PO = A. viridans PO (Aerococcus viridans, UniProt A9X9K8); design: method as in PMID 37201323; conditions: assay conditions of previous study; cited from earlier work
Chain of A. viridans PO (A9X9K8 entry or part of it): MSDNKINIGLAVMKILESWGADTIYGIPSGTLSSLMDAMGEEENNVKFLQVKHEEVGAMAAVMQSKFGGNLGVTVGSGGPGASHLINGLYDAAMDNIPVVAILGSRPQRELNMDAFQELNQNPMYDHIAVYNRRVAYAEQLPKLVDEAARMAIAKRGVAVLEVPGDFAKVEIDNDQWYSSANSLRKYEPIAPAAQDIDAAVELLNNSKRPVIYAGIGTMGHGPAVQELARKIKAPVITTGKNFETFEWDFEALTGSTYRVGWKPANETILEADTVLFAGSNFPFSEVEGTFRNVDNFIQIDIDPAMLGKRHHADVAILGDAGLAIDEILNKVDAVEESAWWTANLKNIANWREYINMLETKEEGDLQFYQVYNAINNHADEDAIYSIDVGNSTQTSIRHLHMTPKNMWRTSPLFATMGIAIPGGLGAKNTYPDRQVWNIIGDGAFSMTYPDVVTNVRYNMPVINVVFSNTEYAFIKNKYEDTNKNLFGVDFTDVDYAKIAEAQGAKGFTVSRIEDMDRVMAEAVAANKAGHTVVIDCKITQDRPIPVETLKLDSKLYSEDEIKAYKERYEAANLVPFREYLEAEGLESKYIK

Chain of E. coli OGDH E1 (P0AFG3 whole entry): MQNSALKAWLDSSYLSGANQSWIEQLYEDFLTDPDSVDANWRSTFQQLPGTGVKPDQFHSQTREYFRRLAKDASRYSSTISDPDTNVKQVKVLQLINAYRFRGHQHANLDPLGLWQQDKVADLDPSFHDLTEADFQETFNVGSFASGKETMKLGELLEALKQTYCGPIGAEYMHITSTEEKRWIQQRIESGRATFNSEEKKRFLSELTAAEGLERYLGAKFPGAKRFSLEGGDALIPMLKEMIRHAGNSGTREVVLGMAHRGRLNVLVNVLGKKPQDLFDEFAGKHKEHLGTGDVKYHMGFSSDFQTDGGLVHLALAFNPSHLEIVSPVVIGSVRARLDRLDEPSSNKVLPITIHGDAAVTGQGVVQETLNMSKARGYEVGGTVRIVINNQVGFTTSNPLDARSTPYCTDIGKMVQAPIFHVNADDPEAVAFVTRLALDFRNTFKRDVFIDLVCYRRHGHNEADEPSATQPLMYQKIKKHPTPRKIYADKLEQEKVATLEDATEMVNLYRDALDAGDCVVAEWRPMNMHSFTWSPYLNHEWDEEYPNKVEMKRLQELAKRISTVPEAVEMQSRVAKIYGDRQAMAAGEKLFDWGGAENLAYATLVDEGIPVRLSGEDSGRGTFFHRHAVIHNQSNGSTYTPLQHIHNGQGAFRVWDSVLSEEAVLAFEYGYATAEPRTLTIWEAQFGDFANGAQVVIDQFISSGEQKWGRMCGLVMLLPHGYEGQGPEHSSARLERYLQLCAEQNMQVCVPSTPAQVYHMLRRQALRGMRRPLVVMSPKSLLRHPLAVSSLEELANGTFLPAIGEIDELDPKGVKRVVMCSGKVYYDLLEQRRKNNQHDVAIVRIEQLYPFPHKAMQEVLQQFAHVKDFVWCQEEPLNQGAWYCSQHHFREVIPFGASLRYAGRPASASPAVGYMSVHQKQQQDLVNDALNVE

Cc1ncc(Cn2cc(CCOP(=O)(O)O)nn2)c(N)n1 [compound 5]
membrane permeability in PAMPA (in words) [1]: membrane-impermeable | Papp at 10 h, 500 µM ([1]; PAMPA, compounds at 500 µM, 5% DMSO in PBS pH 7.4, 10 hours, room temperature, read-out: PAMPA log Pe (converted)): 0.398 ×10⁻⁶ cm/s | Fa (fraction absorbed) ([1]; compounds at 500 µM, 5% DMSO in PBS pH 7.4, 10 hours, room temperature): 2% | IC50 (Porcine PDH E1): 6.6 µM | IC50 (S. cerevisiae PDC): 1.3 mM | IC50 (E. coli OGDH E1): 170 µM | IC50 (A. viridans PO): 348 µM
